Test results reported in patent US9237750B2, “Ornidazole and related compounds for use as herbicides” (RAMOT AT TEL-AVIV UNIVERSITY LTD., priority 2012, dated 2016).

Legend:
Phosphoribulose kinase = assay: Calvin cycle enzyme activity; format: biochemical, Anabaena; settings: 1 mM Ornidazole
Experimental: (§1) Rubisco was assayed as described by Marcus et al. (2005, ibid) and Snir et al. (2006, ibid). Phospho-ribulose kinase was assayed by conversion of phospho-ribulose to RuBP, which was determined by Rubisco dependent carboxylation with radiolabeled ^14CO2. Plant or cyanobacterial extract was incubated with medium containing 50 mM Hepes pH 8, 10 mM MgCl2, 20 mM NaH^14CO3, 1 mM DTT, 0.5 mM ribose-5-phosphate, ribose-5-phosphate isomerase and activated Rubisco. Phosphoglycerate kinase, GAPDH, FBPase and SBPase were determined as described by Leegood (Leegood R C., 1990. In: Methods in plant biochemistry, Vol 3, pp 15-37, Academic Press).
(§2) However, analysis of Ornidazole effect on various enzymes of the Calvin cycle in Anabaena including ribulose-bisphosphate carboxylase/oxygenase (Rubisco), phosphoglycerate kinase, glyceraldehyde-3-phosphate dehydrogenase (GAPDH), triose-phosphate isomerase, aldolase, fructose and sedoheptulose bisphosphatase and phosphoribulose kinase, has shown inhibition of GAPDH and triose-phosphate isomerase (Table 2).

Aldolase = assay: Calvin cycle enzyme activity; format: biochemical, Anabaena; settings: 1 mM Ornidazole
Experimental: as §1, §2

Rubisco = target: T1, Rubisco (Nostoc sp., UniProt P00879); assay: Calvin cycle enzyme activity; format: biochemical, Anabaena; settings: 1 mM Ornidazole
T1 construct: endogenous in cells; host or cells: Anabaena PCC7120 extract
Experimental: as §1, §2

Fructose bisphosphatase = assay: Calvin cycle enzyme activity; format: biochemical, Anabaena; settings: 1 mM Ornidazole
Experimental: as §1, §2

GAPDH = assay: Calvin cycle enzyme activity; format: biochemical, Anabaena; settings: 1 mM Ornidazole
Experimental: as §1, §2

[1] = Stability in BG-11 medium lacking cells (LC-MS); format: physicochemical; settings: 0.1 mM, dark or light, four days
Experimental: (§3) Ornidazole (molecular mass 220 and 222 due to two isotopes of chlorine) or degradation products were sought by LC-MS. The chromatograms of samples from the first and fourth days are shown in FIG. 7B and FIG. 7C, respectively. The retention time and molecular mass of the isolated molecules are designated.
(§4) The concentrations of Ornidazole and its degradation product in the medium were determined during the growth of the cyanobacterium Anabaena PCC7120 and in media lacking cyanobacteria in the dark or under illumination. Ornidazole at 0.1 mM concentration was added to three growth tubes containing BG-11 medium: one growth tube was kept in the dark, the second under light conditions of 60 μmol photons m^−2 sec^−1 and the third tube, to which Anabaena cells were added, was also kept under similar light conditions. Samples from each tube were taken every day, separated on a C18 reverse phase HPLC column, and Ornidazole (molecular mass 220 and 222 due to two isotopes of chlorine) or degradation products were sought by LC-MS. A degradation product of molecular mass 184, identified as C7H9N3O3, was found in all three tubes.

Lemna = assay: PAM fluorescence parameters of aquatic plant; format: in vivo; settings: 1 mM Ornidazole in growth medium; actinic light 210 μmol photons×m^−2×sec^−1
Experimental: The fluorescence under dim (3 μmol photons×m^−2×sec^−1) and saturating (2000 μmol photons×m^−2×sec^−1, 0.8 sec) flash light (Fo and Fmax, respectively) of pre-darkened plants was determined in the presence or absence of 1 mM Ornidazole in the growth medium, using a PAM fluorimeter. Quantum yield and non-photochemical quenching (qN) were determined with saturating flashes under actinic light (210 μmol photons×m^−2×sec^−1).
(§5) The rate of net O2 exchange was determined using a Clark-type O2 electrode (Rank Brothers Ltd, UK). Fluorescent measurements (quantum yield, photochemical and non photochemical quenching) were determined using a modulated fluorometer (PAM, Walz, Germany) as described by Schreiber et al. (Schreiber U et al., 1986. fluorometer. Photosynth Res 10, 51-62) and Snir et al. (Snir A, et al., 2006. Photosynth Res 90, 233-242).
The effect of Ornidazole on photosynthesis was further examined in the aquatic plant Lemna. Lemna plants were collected from a pond at the Botanical garden of Tel Aviv University and kept in the pond water as a growth medium. The fluorescence under dim (3 μmol photons m^−2 sec^−1) and saturating (2000 μmol photons m^−2 sec^−1, 0.8 sec) flash light (Fo and Fmax, respectively) of pre-darkened plants was determined in the presence or absence of 1 mM Ornidazole in the growth medium, using a PAM fluorimeter (H. Walz, Germany). […]

Anabaena PCC7120 [2] = assay: Biodegradation in BG-11 medium in the presence of Anabaena cells (LC-MS); settings: 0.1 mM, in the presence of cyanobacteria
Experimental: as §3, §4

[3] = test system: Phaeodactylum tricornutum; assay: Net O2 exchange (photosynthesis and respiration), O2 electrode; format: cell-based, Phaeodactylum tricornutum (Diatoms)
Experimental: (§6) The cyanobacterium Anabaena PCC7120 was grown in BG-11 medium as was previously described (Marcus Y, et al., 2005. J Bacteriol 187, 4222-4228). The green eukaryotic alga Dunaliella salina was grown on a medium described by Ben-Amotz and Avron (Ben-Amotz A and Avron M 1983. Plant Physiol 72, 593-597), under 20 μmol photons m^−2 sec^−1 at 30° C. The aquatic plant Lemna was collected from an open pond at the Botanical garden of Tel Aviv University. Seedlings of Avena sterilis were grown in pots in a greenhouse. The marine diatom Phaeodactylum tricornutum was grown as described in Haimovich-Dayan et al. (Haimovich-Dayan M. et al. 2012. New Phytol 195:177-185).
as §5
The algae Anabaena PCC7120 (Cyanobacteria), Dunaliella salina (Chlorophyta) and Phaeodactylum tricornutum (Diatoms) were each grown in its suitable medium as described hereinabove towards the mid logarithmic phase. 1 mM Ornidazole was then added to the medium for 5 min, and respiration and photosynthesis were measured for at least 10 min.

Anabaena PCC7120 [4] = assay: Growth of cyanobacterium determined by chlorophyll concentration; format: cell-based
Experimental: Cyanobacteria were grown in BG11 medium under 30 μmol photons m^−2 sec^−1 at 30° C. in the presence of the indicated concentration of Ornidazole.
as §6
The effect of Ornidazole on the growth of the cyanobacterium Anabaena PCC7120 was examined by determining the chlorophyll concentration. The algae were grown in BG-11 medium as described herein above. […] One mM Ornidazole in the medium caused a decrease in chlorophyll concentration to 1% of its original concentration after three days of such incubation (FIG. 1).

[5] = Phaeodactylum tricornutum, 1 mM Ornidazole added for 5 min

## Cc1ncc([N+](=O)[O-])n1CC(O)CCl (centres unmarked) [Ornidazole, 1-chloro-3-(2-methyl-5-nitro-1H-imidazol-1-yl)propan-2-ol]
Phosphoribulose kinase
  Activity: 66.7 μmol × mg^−1chl × h^−1
Aldolase
  Activity: 120 μmol × mg^−1chl × h^−1
Rubisco
  Activity: 74.6 μmol × mg^−1chl × h^−1
Fructose bisphosphatase
  Activity: 71 μmol × mg^−1chl × h^−1
GAPDH
  Activity: 1.77 μmol × mg^−1chl × h^−1
  inhibition of enzyme activity: 98%-100
[1]
  Ornidazole concentration in medium: remained stable
Lemna
  non-photochemical quenching: increased
  photosynthetic quantum yield: decreased significantly
Anabaena PCC7120 [2]; after four days of incubation
  Ornidazole remaining, of its initial concentration: 10%
Anabaena PCC7120 [2]; after seven days
  Ornidazole detection in medium: could no longer be detected
[3]; [5]
  Photosynthesis: −4.33 μmol O2 mg^−1 chl h^−1
  Respiration: −67.14 μmol O2 mg^−1 chl h^−1
[3]; Phaeodactylum, 1 mM
  effect on respiration rate: stimulated the respiration rate
[3]; Phaeodactylum, higher concentrations (than 1 mM) or longer incubation time
  effect on photosynthesis: abolished photosynthesis
Anabaena PCC7120 [4]; 250 μM Ornidazole in BG-11 medium
  effect on growth: stopped the growth and stimulated chlorosis
Anabaena PCC7120 [4]; 1 mM Ornidazole in the medium, after three days
  chlorophyll concentration relative to original concentration: 1%
